Experiments:
melanoma cell lines = assay: Cell viability by MTT assay, melanoma cell lines; type: cell-based, human; settings: 5 μM, 48 hours, vs vehicle (DMSO), FIG. 2
Method: UNC0642 was purchased from Sigma Aldrich. The panel of human melanoma cell lines, derived from cutaneous melanomas, is shown in Table 1 and the cells have all been previously described. Cells were maintained in Roswell Park Memorial Institute (RPMI) 1640 supplemented with 10% fetal bovine serum (FBS), 100 U/mL penicillin, and 100 µg/mL streptomycin in a humidified atmosphere of 5% CO2 at 37° C. Normal melanocytes were grown in Clonetics™ MGM™-4 Melanocyte Growth Medium-4 supplemented with CaCl2, phorbol-12-myristate 13-acetate (PMA), recombinant human fibroblast growth factor basic (rhFGF-B), recombinant human insulin (rh-insulin), hydrocortisone, bovine pituitary extract (BPE), FBS and GA-1000 (30 μg/ml Gentamycin and 15 ng/ml Amphotericin) (Lonza).
For proliferation studies, cells (5×10^3) were seeded in 96-place wells and allowed to adhere overnight, and incubated in fresh growth medium in the presence of either the G9a inhibitor UNC0642 (Sigma Aldrich) or the vehicle control DMSO (Sigma Aldrich). Proliferation was evaluated via real-time imaging using IncuCyte Zoom (Essen BioScience) and/or by performing a 3-(4,5-dimethylthiazol-2-yl)-2,5-diphenyltetrazolium bromide ([…]) assay. After monitoring the cells, 20 μL of MTT (5 mg/mL; Sigma-Aldrich) was added. […] The absorbance value (optical density) of each well was measured at 570 nm.

[1] = system: D05 and C008 melanoma cell lines; assay: Proliferation by IncuCyte Zoom real time cell imaging, sensitive lines; type: cell-based, human
Method: Four cell lines were then chosen for further analysis. These were C006 (NRAS mt), C092 (Triple wt), C008 (NF1 mt) and D05 (BRAF mt). These four lines are representatives of the 4 cutaneous melanoma genomic subtypes and include 2 lines (C008 and D05) that were very sensitive to the inhibitor and 2 lines that were less sensitive (C006 and C092). Proliferation of these lines was evaluated by real time cell imaging using IncuCyte Zoom where cells were grown for 48 hours in the presence or absence of 5 μM UNC0642.
For proliferation studies, cells (5×10^3) were seeded in 96-place wells and allowed to adhere overnight, and incubated in fresh growth medium in the presence of either the G9a inhibitor UNC0642 (Sigma Aldrich) or the vehicle control DMSO (Sigma Aldrich). Proliferation was evaluated via real-time imaging using IncuCyte Zoom (Essen BioScience) and/or by performing a 3-(4,5-dimethylthiazol-2-yl)-2,5-diphenyltetrazolium bromide ([…]) assay. After monitoring the cells, 20 μL of MTT (5 mg/mL; Sigma-Aldrich) was added. The plates were incubated at 37° C. for 3 h before the supernatants were removed, and 100 μL of isopropanol was added to each well. The absorbance value (optical density) of each well was measured at 570 nm.

LC3B II = assay: Immunoblotting analysis of LC3B I/II; type: cell-based, human; settings: D05 and C008 cell lines, 5 μM, 8 hours, FIG. 6
Method: For immunoblotting, protein whole cell lysates were prepared using RIPA lysis buffer containing 20 mM Tris, pH 8.0, 150 mM NaCl, 10% glycerol, 1% Nonidet P-40 containing protease inhibitor cocktail (Roche). Nuclear extracts were obtained using a standard high salt extraction buffer (20 mM HEPES (pH 7.9), 0.32 M NaCl, 1 mM EDTA, and 1 mM EGTA) supplemented with 1mM DU and protease inhibitor cocktail. Protein assays were performed according to the Bradford method using a protein assay kit (BioRad). […] of denatured proteins were separated using 10% sodium dodecyl sulfate-polyacrylamide gel electrophoresis (SDS-PAGE) and transferred to Polyvinylidene difluoride (PVDF) membranes. The membranes were blocked for 1 hour in 5% skim milk in Tris-buffered saline with Tween 20 (TBST; 10 mM Tris-HCl, 150 mM NaCl, 0.1% Tween 20). Immunoblotting was performed with primary anti G9a (#3306, Cell Signaling), H3K9me2 (ab 1220, Abcam), H3 (ab1791, Abcam) or Tubulin (ab6046, Abcam) and detected with either HRP-conjugated anti-rabbit (#7074, Cell Signaling Technology) or HRP-conjugated anti-mouse (#7076, Cell Signaling Technology). After applying ECL detection reagents (GE Healthcare), protein bands were visualized using X-ray film (Fujifilm).
Immunoblotting analysis was performed as described above, but also utilizing an anti-LC3B primary antibody (ab48394, Abcam).

MAP1LC3B = assay: Quantitative real time PCR of MAP1LC3B expression in melanoma cell lines; type: cell-based, human; settings: 24 hours
Method: (§1) Quantitative RT-PCR and ChIP assays were conducted as previously described (Lee et al. (2010) Mol Cell 39, 71-85). Briefly, total RNA was isolated from either the tumor cells or from xenografts using Trizol (Invitrogen) and reverse transcription was performed from 2 μg of total RNA using the Superscript III cDNA synthesis system (Invitrogen). The abundance of mRNA was detected by an ABI VIIA7 system with SYBR Green Master Mix (Life Technologies). Primer pairs were designed to amplify 90-150 bp mRNA specific fragments and were confirmed as unique products by melting curve analysis. The quantity of mRNA was calculated using the ΔΔCt method and normalized to HPRT. All reactions were performed in triplicates.

MAP1LC3B promoter = assay: Chromatin immunoprecipitation (ChIP) on the MAP1LC3B promoter; type: cell-based, human; settings: D05 cells, 5 μM, 24 h, FIG. 9
Method: In order to ascertain whether the inhibition of G9a directly impacts MAP1LC3B expression, chromatin immunoprecipitation (ChIP) was performed on the MAP1LC3B promoter. Changes in histone H3K9 dimethylation (H3K9me2) and acetylation (H3K9Ac), as well as the recruitment of RNA Pol II, were compared between vehicle or UNC0642 treated cells (FIG. 9). Consistent with the increase in gene expression observed in FIG. 8, there was a greater than 4-fold reduction in H3K9me2 concomitant with an increase in RNA Pol II recruitment at the MAP1LC3B promoter following UNC0642 treatment.
as §1

D20 melanoma cells = assay: In vivo tumor growth analysis, D20 melanoma xenograft; design: species or system SCID mice; settings: 5 mg/kg every two days for two weeks, vs vehicle control
Method: To determine the effect of inhibiting G9a on tumor growth, 6-8 week old SCID mice were subcutaneously injected with D20 BRAF mutant cutaneous melanoma cells. Palpable tumors were allowed to establish (approx. 10 days) before UNC0642 was administered at 5 mg/kg every two days for two weeks. The D20 cell line was used in the subcutaneous model as it had been shown previously to be tumorigenic in vivo and was also sensitive to the drug in vitro.
Groups of 8 SCID mice per treatment group were used for xenograft studies to ensure adequate power to detect biological differences. All experiments were approved by the QIMR Berghofer Medical Research Institute Animal Ethics Committee. D20 melanoma cells (2×106) were mixed 1:1 ratio with Growth factor-reduced Matrigel (BD Biosciences) and injected subcutaneously into the flank of 6-8 week old mice in 100 μL volume (day 0) and treatments, either DMSO or UNC0642 at 5 mg/kg were administered as indicated in the figure legends. Tumor volumes (width2×length/2) were measured using a digital calliper, and presented as mean±SD. All animals were sacrificed at the same time and the tumors were dissected for further analysis.

COc1cc2c(NC3CCN(C(C)C)CC3)nc(N3CCC(F)(F)CC3)nc2cc1OCCCN1CCCC1 [UNC0642]
Cell survival (cell viability, MTT assay) (melanoma cell lines): significantly attenuated
proliferation ([1]; D05 and C008, 5 μM, 48 hours, compared to vehicle control, data not shown): significant reduction in proliferation
number of cells ([1]; over 48 hours treatment, 5 μM, FIG. 3A): significantly decreased
LC3B II protein levels (LC3B II): dramatically increased
induction of MAP1LC3B expression (MAP1LC3B; less sensitive cells (C006 and C092), no statistically significant difference to vehicle, FIG. 8): minimal
MAP1LC3B expression, induction compared to vehicle control (MAP1LC3B; very sensitive lines (D05 and C008), P<0.05, FIG. 8): ~2 fold
RNA Pol II recruitment at the MAP1LC3B promoter (MAP1LC3B promoter): increase
reduction in H3K9me2 at the MAP1LC3B promoter (MAP1LC3B promoter): greater than 4 fold
tumor weight (D20 melanoma cells; end-point, P<0.01, FIG. 10B): statistically significantly reduced
tumor growth (D20 melanoma cells; intraperitoneally, P<0.05, FIG. 10A): statistically significantly reduced

Reference: patent US20210340629A1, “BIOMARKERS FOR CANCER THERAPY” (The Council of the Queensland Institute of Medical Research, priority 2018, published 2021)
